The record followed here is BindingDB's records for doi:10.1016/s0969-2126(98)00113-0 (University of Texas At Dallas, 1998).

The structures appear in SMILES notation. Some results are limits rather than exact numbers.

Experiment [1] addresses Mitogen-activated protein kinase 1 (Rattus norvegicus, UniProt P63086). The experiment can be described thus: Kinase Inhibition Assay. To be noted: pH 7.5; 37 °C.
The target in experiment [2] is Mitogen-activated protein kinase 14 (Homo sapiens, UniProt Q16539). The experiment can be described thus: Kinase Inhibition Assay. To be noted: pH 7.5; 37 °C.
Chain of Mitogen-activated protein kinase 14 (Q16539 whole entry): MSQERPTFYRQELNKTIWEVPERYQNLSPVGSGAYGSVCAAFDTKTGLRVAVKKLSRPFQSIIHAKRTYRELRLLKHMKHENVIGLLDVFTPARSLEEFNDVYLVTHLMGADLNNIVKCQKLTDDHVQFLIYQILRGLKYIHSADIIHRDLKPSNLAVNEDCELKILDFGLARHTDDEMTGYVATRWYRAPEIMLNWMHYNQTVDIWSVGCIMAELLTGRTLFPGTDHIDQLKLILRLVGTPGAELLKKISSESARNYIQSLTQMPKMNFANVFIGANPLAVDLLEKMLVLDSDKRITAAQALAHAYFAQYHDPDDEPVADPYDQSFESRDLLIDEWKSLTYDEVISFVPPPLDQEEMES

Chain of Mitogen-activated protein kinase 1 (P63086 whole entry): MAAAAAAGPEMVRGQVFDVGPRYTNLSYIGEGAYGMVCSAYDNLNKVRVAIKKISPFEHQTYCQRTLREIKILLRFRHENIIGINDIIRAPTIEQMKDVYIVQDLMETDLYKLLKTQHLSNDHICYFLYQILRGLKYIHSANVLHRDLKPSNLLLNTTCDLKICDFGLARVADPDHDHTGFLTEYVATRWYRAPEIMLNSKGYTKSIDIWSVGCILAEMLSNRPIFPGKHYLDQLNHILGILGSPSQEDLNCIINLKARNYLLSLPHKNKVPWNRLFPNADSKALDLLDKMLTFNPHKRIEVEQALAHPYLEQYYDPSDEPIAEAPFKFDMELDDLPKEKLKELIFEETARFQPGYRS

For the compound `Cn1cnc2c(NCc3ccccc3)nc(NCCO)nc21` [2,6,9-Trisubstituted purine deriv. 26], the 50% inhibitory concentration (IC50) (in general, the concentration that inhibits the measured activity by half) was 27 µM in experiment [1] and over 100 µM in experiment [2].
`C[S+]([O-])c1ccc(-c2nc(-c3ccncc3)c(-c3ccc(F)cc3)[nH]2)cc1` (stereo not drawn) [4-{4-(4-fluorophenyl)-2-[4-(methylsulfinyl)phenyl]-1H-imidazol-5-yl}pyridine] registered an IC50 in experiment [1] of over 1000 µM.
